Results as given in publication PMC9873809, “Identification of a human estrogen receptor α tetrapeptidic fragment with dual antiproliferative and anti-nociceptive action” (Scientific Reports, 2023).
“Also recorded” adds a separate entry of the source. Read-outs that look alike come from different tables or passages of the source. No end group written: not given here.

How the values were obtained:
[1] = test system: tactile hypersensitivity in the murine CFA model; test: von Frey test in Complete Freund's Adjuvant (CFA) inflammatory pain model; assay type: in vivo, C57BL/6j mice; conditions: for 50% paw withdrawal threshold (PWT): seven days after CFA, mean ± SEM, n = 8 mice
Method: Experiments were performed according to ethical guidelines established by the International Association for the Study of Pain (IASP) and the relevant European legislation (Directive 2010/63/EU). They were also approved by the Auvergne Animal Experiment Ethics Committee, CE2A and the French Ministry of Higher Education and Innovation. Eight-week-old male C57BL/6j mice were purchased from Janvier Laboratories (Le Genest-Saint-Isle, France), housed under standard laboratory conditions (12 h light/dark cycle, temperature of 21 to 22 °C, 55% humidity under specific pathogen free conditions) and acclimatized for a week before testing. Food and water were available ad libitum.
Design, analysis and reporting were carried out in accordance with the ARRIVE guidelines[56]–[58]. To ensure the methodological quality of the study, Rice et al. recommendations were followed. Animals were randomly divided into eight mice per group. To assess different treatment effects over the same time interval and to avoid, thereby, unverifiable and time-variable environmental influence, treatments were administered following the method of equal blocks. All experiments were performed in a quiet room by the same blinded experimenter. ERα17p and PLMI peptides were dissolved in a saline solution prior to intraperitoneal administration (10 mL/kg).
A persistent inflammatory pain model was produced by injection under brief anesthesia (2.5% isoflurane inhalation) of Complete Freund's Adjuvant (CFA, 10 µL) on the left ankle joint of mice[60]. CFA consisted of Mycobacterium butyricum (Difco Laboratories, Detroit, USA) dissolved in paraffin oil and saline (0.9% NaCl). The solution was autoclaved 20 min at 120 °C. Behavior tests were performed before and seven days after CFA injection.
On behavior testing day, the mice were placed individually in Plexiglas compartments (8 cm (L) × 3.5 cm (W) × 8 cm (D)) and on an elevated wire mesh platform to allow access to the ventral surface of the hindpaws, and were allowed to acclimatize for one hour before testing. Von Frey filaments (0.02 to 1.4 g) were applied perpendicularly to the plantar surface of the paw. Paw withdrawal and licking were considered as positive responses. 50% paw withdrawal threshold (PWT) was determined using an adaptation of the Dixon up–down method, as described previously.
All data were analyzed using the Prism 8 software (GraphPad™ Software Inc., San Diego, CA). Data were tested for normality (Shapiro–Wilk test) and equal variance (Fisher test). For kinetic data, multiple measurements were compared with repeated measures (two-way ANOVA). Post hoc comparisons were performed by the Tukey’s test. […] AUC was expressed as mean ± SEM (g × min). […]

[2] = Transmission electron microscopy of aggregates; assay type: physicochemical
Method: Peptides were dissolved in appropriate buffer at pH 3.4, 7.4 and 9.1 to reach peptide stock solutions of 100 μM. Each peptide was incubated in an Eppendorf tube during 48 h. One drop (20 μL) of each peptide solution was adsorbed onto glow-discharged carbon coated 200 mesh copper grids. After 2 min, the grids were dried and negatively stained during 45 s with a 2.5% uranyl acetate solution. Grids were blotted, dried, and examined by using a Zeiss 912 Omega (Zeiss, Marly-le-Roi, France) […] or a JEOL 2100 HC (Croissy, France) […].

[3] = Solubility as observed when preparing biological assays; conditions: culture media; reason for exclusion from biological assays
[4] = Circular dichroism of the soluble peptide pool over time; assay type: physicochemical; conditions: pH 9.1, peptide 100 μM, 25 °C, between 5 and 22 h
Method: CD spectra were recorded on a Jasco J-815 apparatus (Lisses, France) using quartz cells (0.1 cm path length, Hellma GmbH, Müllheim, Germany). Each peptide was dissolved (final concentration: 100 μM) in appropriate buffer solution, at pH 9.1. After an equilibration period of 5 min at 25 °C, CD spectra were recorded over the 190 to 260 nm wavelength range. Measurements were carried out at 1 nm intervals. Data points were acquired every 0.5 nm in continuous scanning mode (speed = 20 nm.min^−1, bandwidth = 1 nm). CD spectra were recorded after 0, 5, 22 and 28 h (unit: mean residue ellipticity [θ]MRE, in deg.cm^2.dmol^−1). Acquisitions were carried out using the software Spectra Manager. Recorded data (mean of five scans) were treated with GraphPad Prism. Buffer background was subtracted to avoid buffer and cell contributions.

[5] = ThT fluorescence kinetics of fibril/aggregate formation; assay type: physicochemical; conditions: ThT 10 μM, mean of triplicate
Method: Fibrils were detected by measuring the fluorescence intensity of Thioflavin T (ThT)[53]. A plate reader (Fluostar Optima, BMG LabTech, Ortenberg, Germany) and standard 96-wells flat-bottom black microtiter plates (Costar 3792, Sigma Aldrich, Saint-Louis, USA) were used in combination with excitation and emission filters, at 440 and 485 nm, respectively (ThT concentration: 10 μM). Peptide concentrations varied from 10 to 100 μM, at pH 3.4 (0.2 M glycine HCl in water), pH 7.4 (0.2 M KH2PO4 in water, 0.2 M K2HPO4, in water) and pH 9.1 (0.2 M glycine NaOH in water). The microtiter plate was shaken prior to measurements. Fluorescence intensity (arbitrary units, u.a.) was recorded every 10 min, during 40 h. Resulting curves were analyzed by using GraphPad Prism. Data are the means of experiments performed in triplicate.

inflammation and pain = conditions: cited from earlier work
[6] = test system: xenografted triple negative breast tumors; conditions: 1.5 mg/kg body weight, three times a week for four weeks, mice; cited from earlier work
[7] = assay type: physicochemical; conditions: for change of intensity of aliphatic proton signals (1H-NMR): 298 K, 65 h, 500 MHz
Method: ERα17p fibrilization was followed at 298 K by using a NMR spectrometer (Bruker AVANCE III 500 MHz) equipped with a triple resonance (^1H, ^15 N, ^13C) cryoprobe. Each sample (100 μM) was prepared extemporaneously in appropriate buffer at pH 3.4, 7.4 and 9.1. A 10:90 D2O:H2O mixture was added to the buffer to reach a final D2O percentage of 7.5%. The final volume was of 520 μL in a 5 mm tube. 1D proton experiments (eight scans) were carried out over 65 h, with a total of 258 spectra (1 spectrum each 15 min, 8 scan/spectrum). Spectra analysis was carried out with the Bruker Topspin software by focusing between 0.80 and 3.60 ppm aliphatic side-chains region.

[8] = cited from earlier work
From the text: Then, we have explored the biological effects of the peptide 2, not only on cell survival (in vitro study) but also in pain (in vivo study). […] Our approach consisting in designing a minimalist active ERα17p-derived peptide, the pharmacologically inert KRSKK motif was excluded from our study. […] Regarding phenotypes, a GPER-dependent ...

[9] = test system: GPER (WT) MDA-MB-231 cells; test: Cell growth by automated cell counting; assay type: cell-based, human; conditions: WT MDA-MB-231, 72 h, increasing concentrations, 2.5% charcoal-stripped FBS, three independent experiments in triplicate
Method: (§1) MCF-7 (ER + , PR + , […] , GPER +) and HS578T (ER-, PR-, Her2-, GPER +) cells were cultured in RPMI-1640 and DMEM medium (Life Technologies, Courtaboeuf, France), respectively, supplemented with 10% (v/v) fetal bovine serum (FBS), 100 U/mL penicillin and 100 µg/mL streptomycin. MDA-MB-231 triple negative breast cancer cells were obtained from the ATCC (Manassas, VA, USA). Cells were maintained in DMEM/F12 (Dulbecco’s modified Eagle’s medium) with phenol red, supplemented with 5% fetal bovine serum (FBS) and 1% penicillin/streptomycin (Thermo Fisher Scientific, Monza, Italy). Cells were grown in a 37 °C incubator with 5% CO2.
(§2) Short guide RNA (sgRNA) sequence targeting human GPER was designed using the E-CRISP sgRNA Designer (http://www.e-crisp.org/E-CRISP/) and was cloned into the pSpCas9 (BB)-2A-Puro (PX459) plasmid, as previously described. The GPER sgRNA sequence used to generate the GPER knockout is as followed: sgGPER: 5′-[…]-3′. Next, the vector with sgRNA was transiently transfected into MDA-MB-231 cells using Lipofectamine LTX (Life Technologies, Milan Italy). […]
(§3) MDA-MB-231 WT and GPER KO cells were seeded in 24-well plates in regular growth medium. […] Cells were counted on day 4 using an automated cell counter (Life Technologies, Milan, Italy), following the manufacturer’s recommendations.

[10] = test system: GPER knockout (KO) MDA-MB-231 cells; test: Cell growth by automated cell counting; assay type: cell-based, human; conditions: GPER KO MDA-MB-231, 72 h, increasing concentrations, 2.5% charcoal-stripped FBS, three independent experiments in triplicate
Method: as §1, §2, §3

GPER = conditions: binding within the ligand-binding site of GPER; cited from earlier work
Method: In physiological conditions (complete serum) and at the concentration of 10 μM, ERα17p triggers membrane-initiated pro-apoptotic events, in both ERα-positive and -negative breast cancer cell lines with, however, a preference for ERα-positive cancer cells. It decreases the ratio Bcl-xl/Bax, increases cleaved caspase-9 and induces a redistribution of actin through a mechanism requiring PI3K, ROCK and p38 MAPK, depending on cell line[21],[22]. Moreover, ERα17p induces a proteasome-dependent decrease of the levels of the G protein-coupled estrogen receptor (GPER), of activated EGFR and ERK1/2 ...

[11] = pH 9.1 (glycine NaOH 0.2 M in water), peptide 100 μM, 48 h incubation

CN1CC[C@]23c4c5ccc(O)c4O[C@H]2[C@@H](O)C=C[C@H]3[C@H]1C5 [morphine, reference compound]
50% paw withdrawal threshold (PWT) ([1]; 1 mg/kg, positive control, time not stated): 0.672 ± 0.041 g

NSLALSLT [peptide 1]
length of stacked fibrils (TEM) [2, 11]: 1.5 μm
thickness of stacked fibrils (TEM) [2, 11]: 20 nm
solubility for biological assays [3]: insufficiently soluble; also recorded: poor solubility
decrease of the soluble pool (CD) [4]: 70%
formation of aggregates (ThT fluorescence), fragments ([5]; pH 9.1 (glycine NaOH 0.2 M), peptide 100 μM, 40 h, ERα17p as reference): exponential increase of the fluorescence signal

PLMIKRSKKNSLALSLT [ERα17p]
dose from which anti-inflammatory and analgesic actions are supported (inflammation and pain): ≥ 2.5 mg/kg
decrease of the size of xenografted triple negative breast tumors [6]: about 50%
aggregates seen by TEM ([2]; pH 3.4, peptide 100 μM, 48 h incubation): no aggregate was detected
morphology of aggregates by TEM ([2]; pH 7.4, peptide 100 μM, 48 h incubation): granulations resembling to a dense network of prefibrillar amyloid oligomers
morphology of aggregates by TEM ([2]; pH 9.1, peptide 100 μM): entanglement network of mature amyloid fibrils
length of amyloid fibrils (TEM) ([2]; pH 9.1, peptide 100 μM, 48 h incubation): > 1 μm
change of intensity of aliphatic proton signals (1H-NMR) ([7]; pH 3.4, peptide 100 μM): No significant change
total amount of peptide remaining soluble (1H-NMR) ([7]; pH 7.4): about 40%
change of intensity of aliphatic proton signals (1H-NMR) ([7]; pH 9.1, peptide 100 μM): decay of the proton signals followed by a plateau
cellular internalization [8]: poorly internalized
formation of aggregates (ThT fluorescence) ([5]; pH 3.4 (0.2 M glycine HCl in water), peptide 10-100 μM, 40 h, ex 440/em 485 nm): No aggregation
formation of aggregates (ThT fluorescence) ([5]; pH 7.4 (0.2 M KH2PO4/0.2 M K2HPO4 in water), peptide 50 and 100 μM, 40 h): exponential time-dependent increase of the formation of aggregates
delay before formation of aggregates (ThT fluorescence) ([5]; pH 9.1 (0.2 M glycine NaOH in water), peptide 10 and 25 μM): 18 h
formation of aggregates (ThT fluorescence) ([5]; pH 9.1 (0.2 M glycine NaOH in water), peptide 50 and 100 μM, 40 h): exponential time-dependent increase of the formation of aggregates
50% paw withdrawal threshold (PWT) ([1]; 1.25 mg/kg i.p., 45 min): 0.141 ± 0.025 g
50% paw withdrawal threshold (PWT) ([1]; 2.5 mg/kg i.p., 45 min): 0.293 ± 0.055 g
calculated EC50 of anti-hyperalgesic action ([1]; from AUC (0-180 min) of PWT variations, i.p., CFA model, von Frey test): 3.7 ± 1.9 mg/kg
effect on cell viability [9]: able to reduce the viability
effect on cell viability [10]: inactive
Kd (GPER): micromolar range
